The source of these data is patent publication US20020102230A1, “Method for inactivating pathogens” (priority 2000, published 2002).

In brackets after ≈: the same amount, converted by molar mass.

The test system of series [1] is CEM-SS cells. The procedure: (§1) CEM-SS cells (obtained from the AIDS Research and Reference Reagent Repository, Bethesda, Md.) are passaged in T-75 flasks in tissue culture media (RP 1640 medium (no phenol red) with 10% Fetal Bovine Serum (heat inactivated), 2 mM L-glutamine, 100 U/mL penicillin, 100 μg/mL streptomycin, and 10 μg/mL gentamycin). On the day preceding the assay, the cells are split 1:2. On the day of assay the cells are collected by centrifugation, washed twice with tissue culture medium and resuspended in fresh tissue culture medium. Total cell and viability counting is performed using a hemacytometer. Cell viability prior to the assay is determined by Trypan Blue dye exclusion and must exceed 95%. A pretitered aliquot of HIV-1 RF (AIDS Research and Reference Reagent Repository, Bethesda, Md.), CEM-SS cells and compound are placed into microtiter plates. Each plate contains cell control wells (cells only), virus control wells (cell plus virus), drug toxicity control wells (cells plus drugs only), drug calorimetric control wells (drugs only) as well as experimental wells (drug plus cells plus virus) . Cultures are incubated for 6 days at 37° C., 5% CO2 and antiviral activity and compound toxicity determined by MTS staining.

The test system of series [2] is HIV-1 (RF). It counts as cell-based. The settings on record: 6 days, MTS, control, row printed in μM, read-out: Ic50, activity against HIV-1 in CEM-SS cells. The method, then:
as §1

The test system of series [3] is IIIB strain of HIV. Conditions: virus adsorption interval of 1 h; cited from earlier work.
For series [4], the system named is HeLa CD4 LTR β-gal cells. The experiment in a line: Compound toxicity (XTT, sister plate) in the virus attachment assay. It counts as cell-based. The procedure:
(§2) This assay is designed to detect compounds that interact with the cell and block virus attachment, and/or compounds that interact with the forming attachment/fusion complex. The attachment assay is performed with HeLa CD4 LTR β-gal cells. HeLa CD4 LTR β-gal cells are routinely cultured with the required selection antibiotics. Twenty-four hours prior to initiation of the assay the cells are trypsinized, counted, and 1×10^4 cells placed in a 0.2 cm well in media without selection antibiotics. At 24 h media is removed and compound in media placed on the cells and incubated for 15 min at 37° C. […] At the end of the incubation, the wells are washed 3 times with media and the culture continued for 40 to 48 h. At termination of the assay, media is removed and β-galactosidase enzyme expression determined by chemiluminescence per manufacturer instructions (Tropix Gal-screen™, Bedford Mass.) by a single step chemiluminescent method using a single solution to lyse the cells and detect β-galactosidase enzyme activity. Compound toxicity is monitored on a sister plate by XTT dye reduction. All determinations are performed in triplicate with serial ½ Log10 dilution of the test materials.

The test system of series [5] is HeLa CD4 LTR β-gal cells. The experiment in a line: Compound toxicity (XTT, sister plate) in the fusion assay. It counts as cell-based. The procedure: The fusion assay assesses the ability of compounds to block cell-to-cell fusion mediated by HIV-1 Env and CD4 expressed on separate cells. This assay is sensitive to inhibitors of both the gp120/CD4 interaction and inhibitors of the X4 coreceptor. First, 5×10^3 HeLa CD4 LTR β-gal cells are placed in microtiter wells and incubated overnight. The following day the media is removed and the HeLa CD4 LTR β-gal cells are incubated for 1 h at 37° C. in fresh media with test compound. Following the incubation 5×10^3 HL2/3 cells are added and the incubation continued for 40 to 48 h. At 40 to 48 h β-galactosidase enzyme expression is detected by chemiluminescence (Tropix Gal-screen™, Tropix, Bedford, Mass.). Compound toxicity is monitored on a sister plate using XTT dye reduction. All determinations are performed in triplicate with serial ½ Log10 dilution of the test materials.

Series [6] concerns IIIB strain of HIV. The experiment in a line: Virus attachment assay (HeLa CD4 LTR β-gal cells). It counts as cell-based. Conditions: Human immunodeficiency virus 1, 1 h adsorption. The method, then: as §2
Series [7] has as its system vaginal/cervical epithelial and other cells. The settings on record: concentrations as low as; cited from earlier work.
The test system of series [8] is herpes simplex virus type 1 (HSV-1) strain HF. The experiment in a line: Virus induced cytopathic effects (CPE) inhibition assay in Vero cells (MTS). It counts as cell-based. Conditions: Human alphaherpesvirus 1, Vero, read-out: Ic50 against HSV-1 virus. From the text: (§3) A virus induced cytopathic effects (CPE) inhibition assay procedure using Promega's cell titer aqueous one solution (MTS, metabolic dye similar to XTT) is employed to evaluate compounds for antiviral activity against herpes simplex virus type 1 (HSV-1) strain HF in Vero cells. Vero cells are pregrown in 96 well tissue culture plates using Dulbecco's modified eagle's media (DMEM) supplemented with 10% heat inactivated fetal bovine serum (FBS), L-glutamine, penicillin and streptomycin. Antiviral assays are designed to test six half log dilution of each compound in triplicate against the challenge virus in microtiter plate wells containing host cell monolayers. To each of the replicate cell cultures is added 50 uL of the test drug solution and 50 uL of virus suspension. Cell control containing medium alone, virus infected controls containing medium and virus, drug cytotoxicity controls containing medium and each drug concentration, reagent controls containing culture medium only (no cells), and drug calorimetric controls containing drug and medium (no cells) are run simultaneously with the test samples. The plates are incubated at 37° C. in a humidified atmosphere containing 5% CO2 until maximum CPE is observed in the untreated virus control cultures (day 5). CPE inhibition is determined by the dye (MTS) uptake procedure. […]

The nature of series [9]: Drug cytotoxicity in Vero cells (MTS), HSV-1 assay. It counts as cell-based. Conditions: African green monkey.
Text: as §3

Turning to `Cc1cn([C@H]2C[C@H](N=[N+]=[N-])[C@@H](CO)O2)c(=O)[nH]c1=O` [AZT], the CC50 in series [1] is greater than 1000 nM. Also, the IC50 in series [2] stood at 0.005 µM. Further, in [3], the “Activity in the virus attachment assay (in words)” value is given as “not active”.
With `COc1cc(-c2ccc(/N=N/c3ccc4c(S(=O)(=O)O)cc(S(=O)(=O)O)c(N)c4c3O)c(OC)c2)ccc1/N=N/c1ccc2c(S(=O)(=O)O)cc(S(=O)(=O)O)c(N)c2c1O` [Chicago Sky Blue], in series [4], the “Attachment Assay TC50” value is greater than 10 µg/mL. In series [5], the “Fusion Assay TC50” value is greater than 10 µg/mL. In series [6], this compound returned an IC50 of 0.32 µg/mL (≈ 0.354 µM).
For the compound Nonoxynol-9, in series [7], the “Concentration that can injure vaginal/cervical epithelial and other cells” value is reported as “about 0.0005%”.
Regarding `Nc1nc2c(ncn2COCCO)c(=O)[nH]1` [Acyclovir], the IC50 in [8] is 2700 nM. In addition, the CC50 at 5 day in series [9] was greater than 10 µg/mL.

As usually defined, the CC50 is the concentration giving 50% cytotoxicity. By IC50 is commonly meant the midpoint of a concentration-inhibition curve.
